The values that follow come from patent US10961228B2, “JAK1 selective inhibitors” (AstraZeneca AB, priority 2017, dated 2021).

Experiment [1] concerns OVA-challenged Brown Norway rat. Description: OVA lung inflammation model, eosinophils in broncho alveolar lavage. In kind it is in vivo. Conditions: i.t. over dose 2*300, twice daily Day14 (Group 8). The method, then:
Brown Norway rats were sensitised and challenged with chicken ovary albumin (OVA) (Clinical and Experimental Allergy, 37 (2007) 973-988). After inhaling an amount of micronized compound within the scope of the present disclosure, the reduction in airway inflammation in the lung of OVA-challenged Brown Norway rat was measured as % reduction of eosinophils in broncho alveolar lavage (BAL) compared to challenged, but untreated rat using the following protocol. As the model control, an i.t. over dose (2*300 μg/kg) of the model reference compound, Budesonide, was used. 74 animals were divided into 8 experimental groups and treated as follows: • Group 1 (Saline/Saline/Air), n=6—Sham (saline) sensitisation at Day0 (S1) and Day7 (S2) and sham (saline) challenged at Day14 (P1). Treatment room air • Group 2 (OVA/Saline/Lactose), n=8—Sensitised at Day0 (S1) and Day7 (S2) with Al(OH)3/OVA mixture followed by the i.t. sham (saline) challenge at Day14 (P1). Treatment DPI Lactose. • Group 3 (OVA/OVA/Lactose), n=12—Sensitised at Day0 (S1) and Day7 (S2) with Al(OH)3/OVA mixture followed by the i.t. OVA challenge at Day14 (P1). […] Treatment i.t. with Budesonide (model reference compound) at 2×300 μg/kg Day14. Twice daily. Prior to start of first sensitisation (S1), the body weight (BW) was recorded and all rats were tail marked with the identification number. The BW was additionally recorded prior to S2 and prior to the termination point (D15). All of the animals' BAL was determined. At the time of termination, the performer(s) (investigator) were blinded to the status of the individual rats, The rats where subcutaneously (s.c.) injected with a mixture of OVA/Al(OH)3 (100 μg OVA:100 mg Alum in 1 ml saline/rat), and intraperitoneally (i.p.) injected with 0.5 ml/rat of B. Pertussis toxin (0.1 μg/ml) at Day 0 and Day 7. Sham sensitisation was performed by s.c. and i.p. injections of isotonic saline with the same volume and strategy. Each exposure system consisted of a flow-past exposure inhalation chamber, rat restraining tubes and a Modified Wright Dust Feed mechanism. Measurements of the aerosol concentration in the inhalation chamber for each dose level was performed by filter sampling at one of the inhalation ports (AP40, 47 mm, Millipore). […] Rats from Group 2 and 3 were exposed to lactose in the restraining tube (Battelle chambers). Target inhaled doses (μg/kg) were calculated assuming exposure duration of 2-10 minutes and a body weight of 250 g using the following formula: The rats were weighed the day prior to OVA challenge. At challenge the rats were anaesthetised with Isoflurane mixture (air and 4% isoflurane) put in supine position with 30-40° angle and instilled with vehicle or compound. This intra-tracheal instillation was performed by using a modified metal cannula with bolus-bulb on the end. Rats were placed in. cages in a supine position with a head up until regaining consciousness. The reference compound was administered twice daily with the second daily administration 6 hours post the first daily administration. Instillation volume: 0.25 mL/rat. Five minutes (5′) before OVA challenge, blood was collected (0.2 ml) from the tongue vein and plasma (60 ul/well) was collected on 96-deepwell plate. The provocation occurred at Day14 (P1) and was applied 2 hours after compound administration. The rats were anaesthetized with Isoflurane mixture (air and 4% isoflurane) put in supine position with 30-40° angle and instilled with the isotonic saline or OVA (0.1 mg/ml). The intra-tracheal instillation was performed. by using a modified metal cannula with bolus-bulb on the end. Rats were placed in cages in a supine position with a head up until regaining consciousness. Sham challenge was performed by i.t. instillation of isotonic saline with the same volume and strategy. Instillation volume: 0.25 ml/rat. At 22 hours post OVA challenge (P1), rats were euthanized with an intraperitoneal injection of 1 ml pentobarbital (50 mg/ml). […]

The target in experiment [2] is recombinant JAK3 (amino acids 781-1124) (Homo sapiens (Human), UniProt P52333). The experiment is described as follows: Enzyme inhibition studies, JAK3 (5 mM ATP, Caliper). The class given is biochemical. The method, boiled down: (§1)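 N-terminal GST-fused kinase domains from insect cells, run at 5 mM ATP with inhibitor at 30, 3, 0.3, 0.03, 0.003 and 0 μM final.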
For experiment [3], the system named is IL-13 induced STAT6 promotor luciferase reporter in U937 monocytes (U937-STAT6-Luc). Description: Cellular interleukin (IL-13) induced JAK-STAT6-luciferase assay (pSTAT6). In kind it is cell-based. The settings on record: Homo sapiens, U-937; IL-13 induced STAT6-luciferase, U937-STAT6-Luc cells. The method, boiled down: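 U937 STAT6-luciferase reporter cells in HEPES/HBSS/0.1% BSA buffer, pretreated with serially diluted compounds (10 mM to 0.5 nM DMSO stocks) and stimulated with IL-13. Incubation 4½ h at 37 °C then 30 min at room temperature; SteadyGlo luminescence read.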

Experiment [4] addresses recombinant JAK1 (amino acids 866-1154) (Homo sapiens (Human), UniProt P23458). Description: Enzyme inhibition studies, JAK1 (5 mM ATP, Caliper). The class given is biochemical. The gist of the method:
as §1

In experiment [5] the target is recombinant JAK2 (amino acids 831-1132) (Homo sapiens (Human), UniProt O60674). The experiment is described as follows: Enzyme inhibition studies, JAK2 (5 mM ATP, Caliper). In kind it is biochemical. The gist of the method:
as §1

Each structure is given as a SMILES string. Where only a bound is given, the exact number is not on record here.

Sequence of recombinant JAK2 (amino acids 831-1132) (O60674 831-1132): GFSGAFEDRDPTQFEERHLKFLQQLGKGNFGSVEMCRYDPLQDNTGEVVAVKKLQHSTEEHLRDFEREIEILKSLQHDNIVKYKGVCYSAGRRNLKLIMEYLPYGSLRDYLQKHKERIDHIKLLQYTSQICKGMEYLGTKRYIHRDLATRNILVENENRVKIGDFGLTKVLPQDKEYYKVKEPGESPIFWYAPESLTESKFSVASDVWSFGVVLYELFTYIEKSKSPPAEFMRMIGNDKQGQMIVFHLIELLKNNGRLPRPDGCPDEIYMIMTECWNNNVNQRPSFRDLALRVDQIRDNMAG
Sequence of recombinant JAK1 (amino acids 866-1154) (P23458 866-1154): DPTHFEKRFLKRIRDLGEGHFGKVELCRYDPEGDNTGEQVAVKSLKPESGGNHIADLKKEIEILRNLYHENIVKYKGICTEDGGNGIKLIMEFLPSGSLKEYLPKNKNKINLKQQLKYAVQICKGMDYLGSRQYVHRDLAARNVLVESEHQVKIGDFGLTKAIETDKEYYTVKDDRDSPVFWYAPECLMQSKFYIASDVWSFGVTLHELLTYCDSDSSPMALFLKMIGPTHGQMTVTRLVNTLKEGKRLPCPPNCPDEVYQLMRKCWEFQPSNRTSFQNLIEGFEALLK
Sequence of recombinant JAK3 (amino acids 781-1124) (P52333 781-1124): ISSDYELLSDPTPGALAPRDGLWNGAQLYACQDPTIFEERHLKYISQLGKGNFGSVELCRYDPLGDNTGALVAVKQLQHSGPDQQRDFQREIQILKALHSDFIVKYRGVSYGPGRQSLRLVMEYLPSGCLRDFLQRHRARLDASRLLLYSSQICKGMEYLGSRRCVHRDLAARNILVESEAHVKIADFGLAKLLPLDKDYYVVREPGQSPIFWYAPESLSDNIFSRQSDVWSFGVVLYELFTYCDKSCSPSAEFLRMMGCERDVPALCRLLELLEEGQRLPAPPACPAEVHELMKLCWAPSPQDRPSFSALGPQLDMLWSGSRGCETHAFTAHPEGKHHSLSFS

In the case of `CCCC1O[C@@H]2C[C@H]3[C@@H]4CCC5=CC(=O)C=C[C@]5(C)[C@H]4[C@@H](O)C[C@]3(C)[C@]2(C(=O)CO)O1` (stereo partly drawn) [Budesonide, reference compound], the inhibition of eosinophils in experiment [1] is on record as 97%.

In general, IC50 refers to the concentration that inhibits the measured activity by half. Take `Cc1cnc(Nc2cccc(S(C)(=O)=O)c2F)nc1-c1c[nH]c2c(NC(=O)[C@H](C)N3CCN(C)C[C@H]3C)cccc12` [Example 47, (S)-2-((R)-2,4-dimethylpiperazin-1-yl)-N-(3-(2-((2-fluoro-3-(methylsulfonyl)phenyl)amino)-5-methylpyrimidin-4-yl)-1H-indol-7-yl)propanamide]: the IC50 in experiment [2] is above 30 µM; in experiment [3] it was 0.619 µM; in experiment [4], 0.18 µM; in experiment [5] it was above 30 µM.

As for `Cc1cnc(Nc2cccc(S(C)(=O)=O)c2F)nc1-c1c[nH]c2c(NC(=O)[C@@H](C)N3CCN(C)C[C@H]3C)cccc12` [Example 48, (R)-2-((R)-2,4-dimethylpiperazin-1-yl)-N-(3-(2-((2-fluoro-3-(methylsulfonyl)phenyl)amino)-5-methylpyrimidin-4-yl)-1H-indol-7-yl)propanamide], the IC50 was above 30 µM in experiment [2], 0.082 µM in experiment [3], 0.003 µM in experiment [4] and 8.23 µM in experiment [5].

On to `COC[C@@H](C(=O)Nc1cccc2c(-c3nc(Nc4cccc(S(C)(=O)=O)c4F)ncc3C)c[nH]c12)N1CCN(C)C[C@H]1C` [Example 54, (S)-2-((R)-2,4-dimethylpiperazin-1-yl)-N-(3-(2-((2-fluoro-(methylsulfonyl)phenyl)amino)-5-methylpyrimidin-4-yl)-1H-indol-7-yl)-3-methoxypropanamide], for which the IC50 was above 30 µM in experiment [2], 0.258 µM in experiment [3], 0.014 µM in experiment [4] and 6.72 µM in experiment [5].

For the compound `COC[C@H](C(=O)Nc1cccc2c(-c3nc(Nc4cccc(S(C)(=O)=O)c4F)ncc3C)c[nH]c12)N1CCN(C)C[C@H]1C` [Example 55, (R)-2-((R)-2,4-dimethylpiperazin-1-yl)-N-(3-(2-((2-fluoro-3-(methylsulfonyl)phenyl)amino)-5-methylpyrimidin-4-yl)-1H-indol-7-yl)-3-methoxypropanamide], the IC50 in experiment [2] is above 30 µM; in experiment [3], 0.026 µM; in experiment [4], below 0.003 µM; in experiment [5], 0.293 µM.

Take `COC[C@@H](C(=O)Nc1cccc2c(-c3nc(Nc4cccc(S(C)(=O)=O)c4F)ncc3F)c[nH]c12)N1CCN(C)C[C@H]1C` [Example 56]: the IC50 in experiment [2] is above 30 µM; in experiment [3], 0.745 µM; in experiment [4] it was 0.123 µM; in experiment [5] it was above 30 µM.

Take `COC[C@H](C(=O)Nc1cccc2c(-c3nc(Nc4cccc(S(C)(=O)=O)c4F)ncc3F)c[nH]c12)N1CCN(C)C[C@H]1C` [Example 57, (R)-2-((R)-2,4-dimethylpiperazin-1-yl)-N-(3-(5-fluoro-2-((2-fluoro-3-(methylsulfonyl)phenyl)amino)pyrimidin-4-yl)-1H-indol-7-yl)-3-methoxypropanamide]: the IC50 in experiment [2] was above 30 µM; in experiment [3], 0.021 µM; in experiment [4], below 0.003 µM; in experiment [5], 0.709 µM.

For the compound `Cc1cnc(Nc2cccc(S(C)(=O)=O)c2F)nc1-c1c[nH]c2c(NC(=O)[C@@H](C)N3CCN(C)C[C@@H]3C)cccc12` [Example 58, (R)-2-((S)-2,4-dimethylpiperazin-1-yl)-N-(3-(2-((2-fluoro-3-(methylsulfonyl)phenyl)amino)-5-methylpyrimidin-4-yl)-1H-indol-7-yl)propanamide], the IC50 in experiment [2] is above 30 µM; in experiment [3], 0.13 µM; in experiment [4] it was 0.0486 µM; in experiment [5], 25.3 µM.

On to `Cc1cnc(Nc2cccc(S(C)(=O)=O)c2F)nc1-c1c[nH]c2c(NC(=O)[C@H](C)N3CCN(C)C[C@@H]3C)cccc12` [Example 59, (S)-2-((S)-2,4-dimethylpiperazin-1-yl)-N-(3-(2-((2-fluoro-3-(methylsulfonyl)phenyl)amino)-5-methylpyrimidin-4-yl)-1H-indol-7-yl)propanamide], for which the IC50 in experiment [2] was above 30 µM; in experiment [3] it was above 6.25 µM; in experiment [4], 0.145 µM; in experiment [5], above 30 µM.

Take `CCOC[C@H](C(=O)Nc1cccc2c(-c3nc(Nc4cccc(S(C)(=O)=O)c4F)ncc3C)c[nH]c12)N1CCN(C)CC1` [Example 62, (R)-3-ethoxy-N-(3-(2-((2-fluoro-3-(methylsulfonyl)phenyl)amino)-5-methylpyrimidin-4-yl)-1H-indol-7-yl)-2-(4-methylpiperazin-1-yl)propanamide]: the IC50 in experiment [2] is above 30 µM; in experiment [3], 0.054 µM; in experiment [4] it was below 0.003 µM; in experiment [5] it was 4.14 µM.

Regarding `Cc1cnc(Nc2cccc(S(C)(=O)=O)c2F)nc1-c1c[nH]c2c(NC(=O)[C@@H](COCc3ccccc3)N3CCN(C)CC3)cccc12` [Example 64, (R)-3-(benzyloxy)-N-(3-(2-((2-fluoro-3-(methylsulfonyl)phenyl)amino)-5-methylpyrimidin-4-yl)-1H-indol-7-yl)-2-(4-methylpiperazin-1-yl)propanamide], the IC50 is above 30 µM in experiment [2], 0.026 µM in experiment [3], below 0.03 µM in experiment [4] and 0.91 µM in experiment [5].

With `Cc1cnc(Nc2cccc(S(C)(=O)=O)c2F)nc1-c1c[nH]c2c(NC(=O)[C@H](COCc3ccccc3)N3CCN(C)CC3)cccc12` [Example 65, (S)-3-(benzyloxy)-N-(3-(2-((2-fluoro-3-(methylsulfonyl)phenyl)amino)-5-methylpyrimidin-4-yl)-1H-indol-7-yl)-2-(4-methylpiperazin-1-yl)propanamide], the IC50 in experiment [2] was above 30 µM; in experiment [3], 0.508 µM; in experiment [4], 0.073 µM; in experiment [5], above 30 µM.
